Test results as given in PubChem BioAssay (NCI).
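All cell lines were grown in 96-well plates and treated with compound for 48 hours. TGI: total growth inhibition.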

How the values were obtained:
Test in all cases: inhibition of tumour cell growth, NCI panel, 48 h
[1] = tested on: OVCAR-3 ovarian
[2] = tested on: T-47D breast
[3] = tested on: OVCAR-8 ovarian
[4] = tested on: RPMI-8226 leukemia
[5] = tested on: CCRF-CEM leukemia
[6] = tested on: LOX IMVI melanoma
[7] = tested on: SK-MEL-2 melanoma
[8] = tested on: SN12C renal
[9] = tested on: OVCAR-5 ovarian
[10] = tested on: SR leukemia

SMILES | TGI [1] | TGI [2] | TGI [3] | TGI [4] | TGI [5] | TGI [6] | TGI [7] | TGI [8] | TGI [9] | TGI [10]
O=C(c1ccco1)N(C(=O)N1CCC(c2ccccc2)CC1)c1ccccc1 | > 100 µM | 64.2 µM | > 100 µM | 60 µM | > 100 µM | > 100 µM | > 100 µM | > 100 µM | > 100 µM | 
O=C(C(=C(I)I)c1ccccc1)c1ccccc1 | 42.3 µM |  | > 100 µM | 45.5 µM | 51.7 µM |  | 38 µM | > 100 µM | > 100 µM | 93.6 µM
C=C1[C@@H]2CCC3[C@]4(C)C(CC[C@@]5(C)C(=O)O[C@H](O)[C@@H]45)[C@H](O)[C@]3(C2)[C@H]1OC1OC(CO)C(O)C(O)C1O (stereo not given in full) | > 50 µM | > 50 µM | > 50 µM | > 50 µM |  | > 50 µM | > 50 µM | > 50 µM | > 50 µM | 
COc1cc(/C=N/N=C(\N)NO)c([N+](=O)[O-])cc1OC | > 100 µM |  | > 100 µM | > 100 µM | > 100 µM | 83.5 µM | > 100 µM | > 100 µM | > 100 µM | > 100 µM
CC/C=N\N1C(N)=C(C#N)C(C#N)(C#N)C1CC (stereo not given) | > 100 µM | > 100 µM | > 100 µM | > 100 µM | > 100 µM | > 100 µM | > 100 µM | > 100 µM | > 100 µM | 
CC[C@]12C=CCN3CCC4(c5cc([C@@]6(C(=O)OC)CC7CN(CCc8c6[nH]c6ccccc86)CC6CCCCC67)c(OC)cc5N(C)C4[C@](O)(C(=O)OC)C1OC(C)=O)[C@@H]32 (stereo not given in full) |  |  | 0.747 µM | 61.3 µM | > 20.6 µM | 6.46 µM | 0.145 µM | 17.5 µM | 0.0926 µM | > 33.8 µM
CSc1nc(Cl)c2c(n1)Sc1nc3ccccc3n1C2O (stereo not given) | > 26.5 µM | > 100 µM | > 29.5 µM | 19.5 µM | 24.6 µM | 3.9 µM | > 47.4 µM | > 100 µM | > 45 µM | 
CC(C)(C)N=NC(C)(C)N=C=O | > 100 µM |  | > 100 µM | > 100 µM | > 100 µM | > 100 µM | > 100 µM | > 100 µM | > 100 µM | > 100 µM
c1cncc(CSc2nc3ccccc3nc2-c2cccs2)c1 | 83.3 µM |  | > 100 µM | > 100 µM | > 100 µM | > 100 µM | > 100 µM | > 100 µM | > 100 µM | > 100 µM
CC(=N/NC(=S)N(C)C)/C(=N\NC(=S)N(C)C)c1ccccc1 | 3.68 µM | 3.54 µM |  |  |  | > 100 µM | 4.69 µM | 3.24 µM | 5.03 µM | 
COc1ccc(C2C=C(c3ccc(C)cc3)N(c3ccc(OC)cc3[N+](=O)[O-])C3C(=O)OC(=O)C23)c(OC)c1 (stereo not given) | 59 µM |  | 39.5 µM | 56.5 µM | > 100 µM | 57 µM | > 100 µM |  | > 100 µM | 61 µM
CN(C)CCCNC(=O)N/N=C/c1ccccc1 | > 100 µM |  | > 100 µM |  | > 100 µM | > 100 µM | > 100 µM | > 100 µM |  | 
CCOC(=O)c1c(SCc2cc(=O)[nH]c(=O)[nH]2)n(-c2ccccc2)c(=S)n(-c2ccccc2)c1=O | > 100 µM | > 100 µM | > 100 µM | > 100 µM | > 100 µM |  | > 100 µM | > 100 µM | > 100 µM | 
O=[N+]([O-])c1ccc(-c2csc(=[N+]3CCCCC3)s2)cc1 | > 100 µM |  | > 100 µM | > 100 µM | > 100 µM | > 100 µM | 60.2 µM | > 100 µM | 62.6 µM | > 83.3 µM
CCN(CC)C(=S)N/N=C(/c1ccccc1)c1ccccn1 | 32.5 µM |  | 11.3 µM | 45.1 µM | 1.09 µM | > 35.8 µM | 26.2 µM | 1.35 µM | 22.9 µM | 0.953 µM
CNC(=O)CN(CC(=O)O)C(=O)NC | > 100 µM |  | > 100 µM | > 100 µM | > 100 µM | > 100 µM | > 100 µM |  | > 100 µM | > 100 µM
CC1=C(C)SC(=C2Sc3c(n(C)c(=O)n(C)c3=O)S2)S1 | > 100 µM | > 100 µM | 64.5 µM | > 100 µM | > 100 µM | > 100 µM | 79.1 µM | > 100 µM | > 100 µM | 
O=C1Nc2cc(F)ccc2C1=O |  |  | > 100 µM | > 100 µM | > 100 µM | > 100 µM | > 100 µM | > 100 µM | > 100 µM | 
CN(C)CCNCCCNc1c2ccccc2nc2cccc([N+](=O)[O-])c12 | 0.0466 µM | 0.0899 µM | 0.0532 µM | < 0.0226 µM | < 0.0207 µM | < 0.0253 µM | 0.0523 µM | 0.279 µM | 0.0543 µM | 
C=CN(C=C)C(=O)Cn1cc(-c2ccccc2)nn1 |  |  | > 100 µM | > 100 µM | > 100 µM | > 100 µM | > 100 µM | > 100 µM | > 100 µM | > 100 µM
